Experimental data published in patent US10806746B2, “Di- and tri-cationic glycosylated antitumor ether lipids, L-gucosylated gaels and rhamnose-linked gaels as cytotoxic agents against epithelial cancer cells and cancer stem cells” (The University of Manitoba, priority 2014, dated 2020).
Like-named read-outs stand apart in the source and are kept apart here.

How the values were obtained:
Format in all cases: cell-based, human
MDA-MB-231 cells = assay: MTS viability assay, MDA-MB-231 breast cancer cells
Protocol: (§1) FIG. 2A. Effects of compounds 1-11 on the viability of MDA-MB231 cells. MDA-MB-231 cells were cultured in DMEM medium supplemented with 10% FBS. Equal numbers were dispersed into 96-well plates. After 24 h, the cells were incubated with compounds 1-11 (0-30 μM) for 48 h. At the end of the incubation, MTS reagent (20% vol/vol) was added and the plates were incubated for 1-4 h. The OD490 was read with a plate reader. Wells with media but no cells were treated in similar fashion and the values utilized as blank. The results represent the mean±standard deviation of 6 independent determinations.
as §1, with “2K.” for “2A.”, “1, 69-72” for “1-11”, “MDA-MB-231” for “MDA-MB231”, “1, 69-72” for “1-11 (0-30 μM)”
(§2) The cell lines were cultured from frozen stocks originally obtained from ATCC. MDA-MB-231, JIMT-1, DU145, U81, U251 cells were grown in DMEM medium. BT474, A2780s, A2780cp cells were grown in DMEM/F12 medium supplemented with 10% FBS. MiaPaCa2 was cultured in DMEM supplemented with 10% FBS and 2.5% horse serum. PC3 cells were cultured in F12K medium supplemented with 10% FBS. All the media were supplemented with penicillin/streptomycin.
(§3) The effects of the GAELs on the viability of the various epithelial cancer cell lines was determined as previously described. Briefly, equal numbers of the cells were dispersed into 96-well plates. After 24 h, the cells were incubated with the compounds (0-30 μM) for 48 h. At the end of the incubation, MTS reagent (20% vol/vol) was added and the plates were incubated for 1-4 h. The OD490 was read with a plate reader. Wells with media but no cells were treated in similar fashion and the values utilized as blank. The results represent the mean±standard deviation of 6 independent determinations.

DU145 cells = assay: MTS viability assay, DU145 prostate cancer cells
Protocol: as §1, with “2D.” for “2A.”, “DU145” for “MDA-MB231”, “DU145” for “MDA-MB-231”
as §1, with “2H. Effect” for “2A. Effects”, “1, 69-72” for “1-11”, “DU145” for “MDA-MB231”, “DU145” for “MDA-MB-231”, “1, 69-72” for “1-11 (0-30 μM)”
as §2, §3

JIMT-1 cells = assay: MTS viability assay, JIMT-1 breast cancer cells
Protocol: as §1, with “2B.” for “2A.”, “JIMT-1” for “MDA-MB231”, “JIMT-1” for “MDA-MB-231”
as §1, with “2J.” for “2A.”, “1, 69-72” for “1-11”, “JIMT-1” for “MDA-MB231”, “JIMT-1” for “MDA-MB-231”, “1, 69-72” for “1-11 (0-30 μM)”
as §2, §3

PC3 cells = assay: MTS viability assay, PC3 prostate cancer cells; details: 48 h, MTS
Protocol: as §1, with “2E.” for “2A.”, “PC3” for “MDA-MB231”, “PC3” for “MDA-MB-231”, “F12K” for “DMEM”
as §2, §3

MiaPaCa2 cells = assay: MTS viability assay, MiaPaCa2 pancreas cancer cells
Protocol: as §1, with “2F.” for “2A.”, “MiaPaCa2” for “MDA-MB231”, “MiaPaCa2” for “MDA-MB-231”, “FBS and 2.5% horse serum.” for “FBS.”
as §1, with “2I.” for “2A.”, “1, 69-72” for “1-11”, “MiaPaCa2” for “MDA-MB231”, “MiaPaCa2” for “MDA-MB-231”, “FBS and 2.5% horse serum.” for “FBS.”, “1, 69-72” for “1-11 (0-30 μM)”
as §2, §3

BT-474 cells = assay: MTS viability assay, BT-474 breast cancer cells; details: 48 h, MTS
Protocol: as §1, with “2C.” for “2A.”, “BT-474” for “MDA-MB231”, “BT-474” for “MDA-MB-231”, “DMEM/F12” for “DMEM”
as §2, §3

[1] = Table 1A, 48 h, read-out: CC50 values MD 231
[2] = Table 1B, 48 h, read-out: CC90 values MD 231
[3] = Table 1A, 48 h, read-out: CC50 values DU 145
[4] = Table 1B, 48 h, read-out: CC90 values DU 145
[5] = Table 1A, 48 h, read-out: CC50 values JIMT1
[6] = Table 1B, 48 h, read-out: CC90 values JIMT1
[7] = Table 1A, read-out: CC50 values PC3
[8] = Table 1B, read-out: CC90 values PC3
[9] = Table 1A, 48 h, read-out: CC50 values MiaPaCa2
[10] = Table 1B, 48 h, read-out: CC90 values MiaPaCa2
[11] = Table 1A, read-out: CC50 values BT474
[12] = Table 1B, read-out: CC90 values BT474
[13] = Table 5, 48 h, read-out: CC50 MDA-MB-231
[14] = Table 5, 48 h, read-out: CC90 MDA-MB-231
[15] = Table 5, 48 h, read-out: CC50 DU-145
[16] = Table 5, 48 h, read-out: CC90 DU-145
[17] = Table 5, 48 h, read-out: CC50 JIMT1
[18] = Table 5, 48 h, read-out: CC90 JIMT1
[19] = Table 5, 48 h, read-out: CC50 Mlapaca2
[20] = Table 5, 48 h, read-out: CC90 Mlapaca2

| SMILES | CC50 (MDA-MB-231 cells; [1]) [µM] | CC90 (MDA-MB-231 cells; [2]) [µM] | CC50 (DU145 cells; [3]) [µM] | CC90 (DU145 cells; [4]) [µM] | CC50 (JIMT-1 cells; [5]) [µM] | CC90 (JIMT-1 cells; [6]) [µM] | CC50 (PC3 cells; [7]) [µM] | CC90 (PC3 cells; [8]) [µM] | CC50 (MiaPaCa2 cells; [9]) [µM] | CC90 (MiaPaCa2 cells; [10]) [µM] | CC50 (MDA-MB-231 cells; [13]) [µM] | CC90 (MDA-MB-231 cells; [14]) [µM] | CC50 (DU145 cells; [15]) [µM] | CC90 (DU145 cells; [16]) [µM] | CC50 (JIMT-1 cells; [17]) [µM] | CC90 (JIMT-1 cells; [18]) [µM] | CC50 (MiaPaCa2 cells; [19]) [µM] | CC90 (MiaPaCa2 cells; [20]) [µM] | also measured |
| --- | --- | --- | --- | --- | --- | --- | --- | --- | --- | --- | --- | --- | --- | --- | --- | --- | --- | --- | --- |
| CCCCCCCCCCCCCCCCOC[C@H](CO[C@H]1O[C@H](CN)[C@@H](O)[C@H](O)[C@H]1N1C(=O)c2ccccc2C1=O)OC [Compound 3, 1-O-Hexadecyl-2-O-methyl-3-O-(-2′-N-phthalimido-6′-amino-2′,6′-dideoxy-δ-D-glucopyranosyl)-sn-glycerol] | 20 | > 30 | > 30 | > 30 | > 30 | > 30 | 15 | 30 | > 30 | > 30 |  |  |  |  |  |  |  |  |  |
| CCCCCCCCCCCCCCCCOC[C@@H](CN)O[C@H]1O[C@H](CO)[C@@H](O)[C@H](O)[C@H]1N [Compound 7, 1-O-Hexadecyloxy-2R-(2′-amino-2′-deoxy-α-D-glucopyranosyl)-3-amino glycerol] | 12 | 17.5 | 17.5 | 25 | 14 | 19 | 9.5 | 17 | 15 | 28 |  |  |  |  |  |  |  |  | CC50 (BT-474 cells; [11]): 25 µM; CC90 (BT-474 cells; [12]): > 30 µM |
| CCCCCCCCCCCCCCCCOCC(N)CO[C@H]1O[C@H](CO)[C@@H](O)[C@H](O)[C@H]1N (stereo partly drawn) [Compound 8, 1-O-Hexadecyloxy-2S/R-amino-3-(-2′-amino-2′-deoxy-α-D-glucopyranosyl)-glycerol] | 6 | 9 | 6 | 9 | 5.5 | 7.5 | 9 | 14 | 8.5 | 14 |  |  |  |  |  |  |  |  | CC50 (BT-474 cells; [11]): 15.5 µM; CC90 (BT-474 cells; [12]): 28 µM |
| CCCCCCCCCCCCCCCCOC[C@H](CO[C@H]1O[C@@H](CN)[C@H](OCc2ccccc2)[C@@H](O)[C@@H]1N)OC [Compound 70, 1-O-Hexadecyl-2-O-methyl-3-O-(4′-benzyl-2′,6′-diamino-2′,6′-dideoxy-β-L-glucopyranosyl)-sn-glycerol] |  |  |  |  |  |  |  |  |  |  | 4 | 4.9 | 3.6 | 4.9 | 2 | 3.5 | 5 | 7.1 |  |
| CCCCCCCCCCCCCCCCOC[C@H](CO[C@@H]1O[C@@H](CN)[C@H](O)[C@@H](O)[C@@H]1N)OC [Compound 71, 1-O-Hexadecyl-2-O-methyl-3-O-(2′,6′-diamino-2′,6′-dideoxy-α-L-glucopyranosyl)-sn-glycerol] |  |  |  |  |  |  |  |  |  |  | 5.5 | 7.5 | 6 | 8 | 4 | 6.5 | 6 | 15 |  |
| CCCCCCCCCCCCCCCCOC[C@H](CO[C@@H]1O[C@@H](CN)[C@H](OCc2ccccc2)[C@@H](O)[C@@H]1N)OC [Compound 72, 1-O-Hexadecyl-2-O-methyl-3-O-(4′-benzyl-2′,6′-diamino-2′,6′-dideoxy-α-L-glucopyranosyl)-sn-glycerol] |  |  |  |  |  |  |  |  |  |  | 4 | 4.9 | 3.6 | 4.9 | 2 | 3.5 | 4.5 | 7 |  |
| CCCCCCCCCCCCCCCCOC[C@H](COC1O[C@H](CNCCCN)[C@@H](O)[C@H](O)[C@H]1N)OC (stereo partly shown) [Compound 74, 1-O-Hexadecyl-2-O-methyl-3-O-[6′-N-(3-aminopropyl)-2′,6′-diamino-2′,6′-dideoxy-glucopyranoside]-sn-glycerol] |  |  |  |  |  |  |  |  |  |  |  |  |  |  |  |  |  |  | CC50 (MDA-MB-231 cells; Table 6, 48 h, read-out: MB-MDA-231 CC50): 13.5 µM; CC90 (MDA-MB-231 cells; Table 6, 48 h, read-out: MB-MDA-231 CC90): 19.5 µM; CC50 (BT-474 cells; Table 6, read-out: BT474 CC50): > 20 µM; CC90 (BT-474 cells; Table 6, read-out: BT474 CC90): > 20 µM; CC50 (DU145 cells; Table 6, 48 h, read-out: DU145 CC50): 16.5 µM; CC90 (DU145 cells; Table 6, 48 h, read-out: DU145 CC90): 20 µM; CC50 (JIMT-1 cells; Table 6, 48 h, read-out: JIMT1 CC50): 13.5 µM; CC90 (JIMT-1 cells; Table 6, 48 h, read-out: JIMT1 CC90): 18.5 µM; CC50 (PC3 cells; Table 6, read-out: PC3 CC50): 12.5 µM; CC90 (PC3 cells; Table 6, read-out: PC3 CC90): 20 µM; CC50 (MiaPaCa2 cells; Table 6, 48 h, read-out: MiaPaCa2 CC50): 18.5 µM; CC90 (MiaPaCa2 cells; Table 6, 48 h, read-out: MiaPaCa2 CC90): > 20 µM |
